Patent publication US20140378502A1, “Par1 Inhibitors for Use in the Treatment or Prevention of Paramyxoviridae Infections” (Université Laval, priority 2011, published 2014)
Where no end group is shown, it is not given here.

What was measured:
hMPV strain C-85473 [1] = assay: hMPV-infected BALB/c mice, five-day treatment started simultaneously or 24 h post infection (experiment 3); format: in vivo; settings: 500 μM
Procedure: (§1) hMPV viral titers were determined by 10-fold serial dilutions of virus in 24-well plates containing LLC-MK2 cells. Before infection, cells were washed twice with phosphate-buffered saline (PBS) to remove residual serum proteins that could inhibit trypsin activity. Infected plates were incubated at 37° C. with 5% CO2 and replenished with 1 μl of fresh trypsin (0.0002%) every other day. hRSV viral titers were determined by 10-fold serial dilutions of virus in 24-well plates containing Hep2 cells. Before infection, cells were washed twice with phosphate-buffered saline (PBS). Infected plates were incubated at 37° C. with 5% CO2. On day 4 post infection, plates were fixed with 80% acetone at −20° C. for 30 min, washed with PBS and air dried. The presence of hRSV was detected by an immuno-staining assay using a monoclonal goat Anti-Respiratory Syncytial Virus primary antibody and a donkey anti-Goat IgG Secondary Antibody, HRP conjugate (both from Cederlane). Virus titers were reported as 50% tissue culture infectious doses (TCID50) per ml, per mouse or per gram of lung. The lower limit of detection of the assay is 10^2 TCID50 per gram. TCID50 were calculated by the Reed and Muench method.
In a third protocol, Two groups of 12 4-6-week-old BALB/c mice (Charles River Laboratories) were infected intranasally with 6×105 TCID50 hMPV strain C-85473 in 25 μl of OptiMEM™, supplemented with the PAR-1 agonist or PAR-1 antagonist at a final concentration of 500 μM and treated on days 1 through 4 post infection with the PAR-1 agonist or PAR-1 antagonist (500 μM). Two more groups of 4-6-week-old BALB/c mice (Charles River Laboratories) were infected intranasally with 6×105 TCID50 hMPV strain C-85473 in 25 μl of OptiMEM™. These groups were treated from day 1 though 5 post infection (treatment delayed 24 h post-infection) with the PAR-1 agonist or PAR-1 antagonist (500 μM). As infected controls, groups of 12 4-6-week-old BALB/c mice (Charles River Laboratories) were infected intranasally with 4×105 TCID50 hMPV strain C-85473 in 25 μl of OptiMEM supplemented with DMSO. All animals were housed in groups of four in micro-isolator cages. The animals were evaluated on a daily basis for mortality, weight loss, and the presence of symptoms. On day 5 post-infection, lungs were removed from six mice per group for the evaluation of viral titres by cell culture
(§2) On day 5 post infection, six animals per group were sacrificed, the lungs were removed and snap frozen in liquid nitrogen. Lungs were weighed, homogenized in 1 ml of PBS, centrifuged (2000 rpm, 10 min) and the supernatant was used to infect LLC-MK2 monolayers (in case of hMPV-infected mice) or Hep2 monolayer (in case of hRSV-infected mice) for virus titration as reported in the section “Viral titers”.
(§3) Differences in weight loss between groups was analysed by repeated measures two-way ANOVA. Viral titers, cytokine levels and mean histopathology scores were analysed using student t-test.

hMPV strain C-85473 [2] = assay: hMPV-infected BALB/c mice, five-day pre-exposure prophylactic treatment regimen (experiment 2); format: in vivo; settings: 500 μM, 5-day treatment; for pulmonary inflammation (histopathology): infected treated vs infected untreated mice; for pulmonary viral titers: vs other infected groups; for weight loss (and symptoms): hMPV-infected mice, vs infected untreated mice
Procedure: as §1
(§4) In the second protocol, groups of 18 4-6-week-old BALB/c mice (Charles River Laboratories) were infected intranasally with 6-8×10^5 TCID50 hMPV strain C-85473 in 25 μl of OptiMEM™ supplemented with the PAR-1 agonist, PAR-1 antagonist or control peptide at a final concentration of 500 μM. As infected controls, groups of 18 4-6-week-old BALB/c mice (Charles River Laboratories) were infected intranasally with 6-8×10^5 TCID50 hMPV strain C-85473 in 25 μl of OptiMEM™ supplemented with H2O or DMSO. As uninfected control, groups 18 mice were sham infected with the concentrated supernatant of non-infected LLC-MK2 cells supplemented with the PAR-1 agonist, PAR-1 antagonist or control peptide at a final concentration of 500 μM or DMSO. On day 1 through 4 post infection, animals were treated with the PAR-1 agonist, PAR-1 antagonist or control peptide at a final concentration of 50 μM or 500 μM, or H2O or DMSO for control groups, resulting in a 5-day treatment in total. Animals were housed in groups of five and three in micro-isolator cages. The animals were evaluated on a daily basis for mortality, weight loss, and the presence of symptoms. On day 5 post-infection, lungs were removed from six mice per group for the evaluation of viral titres by cell culture and cytokine expression by Iuminex™. Lungs of another six mice per group were removed for histopathological analysis.
as §2
(§5) 250 μL of lung homogenates (see section “Pulmonary viral titers”) were added to 250 μl 50 mM KPO4, pH 6.0 buffer containing 0.2% CHAPS {3-[(3-cholamidopropyl)-dimethylammonio]1-1-propanesulfonate} (Sigma) and 0.2% of a protease inhibitor cocktail (Sigma) and stored at −20° C. until the day of analysis. Samples were centrifuged at 13,800×g for 10 min at 4° C., and 50 μl of the supernatant was used for cytokine quantification. Levels of interleukin-4, IL-6, IL-12(p40), IL-12(p70), IFN-γ, KC, MCP-1, MIP-1α, RANTES were determined by the use of a 9-plex mouse bead kits (BioRad™/Millipore™) according to the manufacturer's instructions. Experiments were performed in a 96-well filter plate and results were analysed with the Luminex™ system (Qiagen™).
On day 5 post infection, 6 animals per group were sacrificed, and the lungs were collected at specified time points and fixed with 4% buffered formalin. […]

[3] = Uninfected (sham infected) mice treated for 5 days, check for toxic and non specific effects; format: in vivo, BALB/c mice; settings: 500 μM
Procedure: as §4, with “Lungs of another six mice per group were removed for histopathological analysis.” left out
as §5

hRSV strain 15 595 = assay: hRSV Balb/C mouse model, five-day treatment (experiment 4); format: in vivo; settings: day 5 post hRSV infection, 500 μM, 5-day treatment, vs untreated and PAR-1 agonist treated mice
Procedure: The clinical hRSV A strain 15 959 that was passed nine times on Hep2 cells, was grown on Hep2 cells in MEM™ (Life Technologies) supplemented with 2% FBS (Wisent). Hep2 cells were infected with 10 TCID50/Hep2 cell of hRSV 15 959 and plated out into one flask (150 cm^2) until 60% cytopathic effects were observed. Infected monolayers and supernatants were recovered with a cell scraper and sonicated. The pooled preparation was centrifuged (1200 r.p.m., 10 min) to remove cellular debris. Supernatant was aliquoted and stored at −80° C. The same protocol was followed for a flask of uninfected cells for control mice.
hMPV viral titers were determined by 10-fold serial dilutions of virus in 24-well plates containing LLC-MK2 cells. […] Infected plates were incubated at 37° C. with 5% CO2 and replenished with 1 μl of fresh trypsin (0.0002%) every other day. hRSV viral titers were determined by 10-fold serial dilutions of virus in 24-well plates containing Hep2 cells. […] The presence of hRSV was detected by an immuno-staining assay using a monoclonal goat Anti-Respiratory Syncytial Virus primary antibody and a donkey anti-Goat IgG Secondary Antibody, HRP conjugate (both from Cederlane). […] TCID50 were calculated by the Reed and Muench method. […]
Differences in weight loss between groups was analysed by repeated measures two-way ANOVA. […]

hMPV strain C-85473 [4] = assay: hMPV-infected BALB/c mice, three-day prophylactic treatment regimen (experiment 1); format: in vivo; settings: 3-day treatment; for pulmonary viral titers: day 5 post hMPV infection, vs diluted DMSO or H2O treated mice; for pulmonary viral titers / cytokine expression in the lungs: 50 or 500 μM; for cytokine expression in the lungs: day 5 post infection, Luminex; for weight loss: hMPV-infected mice, 50 or 500 μM intranasal, vs infected untreated mice (H2O or DMSO), followed 14 days; for mice that reached the humane endpoint: none in the untreated group
Procedure: as §1
In the first protocol, groups of 12 4-6-week-old female BALB/c mice (Charles River Laboratories) were infected intranasally with 4-7×10^5 TCID50 hMPV strain C-85473 in 25 μl of OptiMEM™ supplemented with the PAR-1 or PAR-1 antagonist at a final concentration of 50 μM or 500 μM. As infected controls, groups of 12 4-6-week-old BALB/c mice (Charles River Laboratories) were infected intranasally with 4-7×10^5 TCID50 hMPV strain C-85473 in 25 μl of OptiMEM™ supplemented with H2O or DMSO. As an uninfected control, 12 mice were sham infected with the concentrated supernatant of non-infected LLC-MK2 cells supplemented with DMSO. On day 1 and 2 post infection, animals were treated with the PAR-1 agonist or PAR-1 antagonist at a final concentration of 50 μM or 500 μM, or H2O or DMSO for control groups, resulting in a 3-day treatment in total. All animals were housed in groups of four in micro-isolator cages. The animals were evaluated on a daily basis for mortality, weight loss, and the presence of symptoms. On day 5 post-infection, lungs were removed from six mice per group for the evaluation of viral titres by cell culture and cytokine expression by Luminex™.
as §2, §5, §3

hMPV [5] = settings: background statement; cited from earlier work
hMPV [6] = settings: background statement; cited from earlier work; remark: listed apart in the source
hMPV [7] = settings: background statement; cited from earlier work; remark: listed apart in the source
[8] = 5-day prophylactic treatment started simultaneously with infection, vs infected/untreated group (FIG. 12)
[9] = 5-day treatment started 24 h post infection, vs infected/untreated mice (FIG. 13)

Compound | weight loss (hMPV strain C-85473 [1]; [8]) | weight loss (hMPV strain C-85473 [1]; [9]) | pulmonary inflammation (histopathology) (hMPV strain C-85473 [2]; day 5 post hMPV infection) | pulmonary viral titers (hMPV strain C-85473 [2]; day 5 post infection) | weight loss (and symptoms) (hMPV strain C-85473 [2]) | weight loss or symptoms in uninfected mice [3] | pulmonary viral titers (hMPV strain C-85473 [4]) | cytokine expression in the lungs (hMPV strain C-85473 [4]) | weight loss (hMPV strain C-85473 [4]) | effect in hMPV-infected mice (hMPV [5]) | also measured
CC(C)c1ccc(Cn2ccc3c4c(N)nc(NC5CC5)nc4ccc32)cc1 [PAR-1 antagonist, N3-cyclopropyl-7-{[4(I-methylethyl)phenyl]methyl)-7H-pyrrolo[3,2-f]quinazoline-I,3-diamine] | significant reduced weight loss | lost less weight than infected/untreated mice and weight loss started at a later time point | no pulmonary inflammation was observed | reduced pulmonary viral titers | abolished all weight loss and symptoms | In none of the uninfected groups significant weight loss or symptoms were observed | significant (though not dose-dependent) reduction | no significant difference in cytokine expression | dose dependent reduction in weight loss | – | weight loss (hMPV strain C-85473 [1]; 5-day treatment started 24 h post infection, vs infected/untreated mice (FIG. 13), listed as PAR1 antagonists): started losing weight later and lost less weight than untreated infected mice, although the difference was not found to be statistically significant; pulmonary viral titers (hMPV strain C-85473 [1]; day 5 post infection, treatment simultaneous or started 24 h post infection, vs infected/untreated): reduction in pulmonary viral titers; pulmonary inflammatory cytokine/chemokine levels compared to all other groups of infected mice (hMPV strain C-85473 [2]; day 5 post infection, Luminex): significant reduction in all of the evaluated inflammatory cytokine/chemokine levels; lung viral titers (hRSV strain 15 595): significantly reduced viral titers
NC(=O)c1ncn([C@@H]2O[C@H](CO)[C@@H](O)[C@H]2O)n1 [Ribavirin] | – | – | – | – | – | – | – | – | – | effective | effect in a lung transplant recipient with hMPV pneumonia (hMPV [6]): effective; in vitro activity against hMPV (hMPV [7]): good in vitro activity
C[C@]12C[C@H](O)[C@H]3[C@@H](CCC4=CC(=O)CC[C@@]43C)[C@@H]1CC[C@@H]2C(=O)CO [corticosterone] | – | – | – | – | – | – | – | – | – | minimal benefit | –
FTLLR-NH2 [control peptide, FTLLR-NH2] | – | – | – | – | – | In none of the uninfected groups significant weight loss or symptoms were observed | – | – | – | – | –
TFLLR-NH2 [PAR-1 agonist] | regained weight less rapidly than the control | regained their weight more slowly than infected/untreated mice | No significant difference | No significant difference | no significant difference in weight loss | In none of the uninfected groups significant weight loss or symptoms were observed | No significant difference | dose-dependent increases in IL-6, IL-12(p40) and MCP-1 | dose-dependent increase in weight loss | – | weight loss (hMPV strain C-85473 [1]; 5-day treatment started 24 h post infection, vs infected/untreated mice (FIG. 13), listed as PAR1 agonist): more weight loss than infected/untreated mice; pulmonary viral titers, treatment started simultaneously vs 24 h post infection (hMPV strain C-85473 [1]; day 5 post infection): No significant difference; lung histopathological inflammation criteria compared to uninfected, untreated mice (hMPV strain C-85473 [2]; day 5 post hMPV infection): increases in all but one (peribronchial) inflammation criteria; pulmonary cytokine/chemokine levels compared to infected mice treated with H2O (hMPV strain C-85473 [2]; day 5 post infection, Luminex): increased levels of IL-4, IL-12(p40) and MCP-1; pulmonary cytokine/chemokine levels compared to mice treated with the control peptide (hMPV strain C-85473 [2]; day 5 post infection, Luminex): increased levels of IL-4, KC, MCP-1 and MIP-1α; mice that reached the humane endpoint (hMPV strain C-85473 [4]; 50 μM): One out of 6; difference in weight loss vs infected untreated mice (hMPV strain C-85473 [4]; 500 μM): significant on days 5 through 7; mice that reached the humane endpoint (hMPV strain C-85473 [4]; 500 μM): 3 out of 6
